Inconclusive results and toxic doses are left out. How the source made its calls: active means survival T/C of 150% or more; inactive means T/C below 125% in these data.
Tested on: P388 leukemia ip, CD2F1 mice, survival T/C
Test: NCI In Vivo Anticancer Drug Screen. Data for tumor model P388 Leukemia (intraperitoneal) in CD2F1 (CDF1) mice
Conditions: endpoint: median survival time, higher = longer survival
Summary of the method: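 Mice carrying the transplanted tumor received test compound or vehicle. Survival was recorded in each group, and the value is the treated-group measurement divided by that of the vehicle-treated control group.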

[1] = dose: 50.0 mg/kg/injection, schedule: Q01DX005 (ip), vehicle: saline with Tween-80
[2] = dose: 100.0 mg/kg/injection, schedule: Q01DX005 (ip), vehicle: saline with Tween-80
[3] = dose: 200.0 mg/kg/injection, schedule: Q01DX005 (ip), vehicle: saline with Tween-80

Measured: T/C

O=C1NC(=O)C2NC(O)=C(O)NC2N1 (stereo unspecified)
inactive: dose: 12.5 mg/kg/injection, schedule: Q01DX001 (ip), vehicle: saline with Tween-80 102 % of control | dose: 25.0 mg/kg/injection, schedule: Q01DX001 (ip), vehicle: saline with Tween-80 108 % of control

CCCCC1C=CC2C(N1)N2C#N (stereo unspecified)
inactive: dose: 6.25 mg/kg/injection, schedule: Q01DX009 (ip), vehicle: saline 102 % of control | dose: 12.5 mg/kg/injection, schedule: Q01DX009 (ip), vehicle: saline 99 % of control | dose: 25.0 mg/kg/injection, schedule: Q01DX009 (ip), vehicle: saline 102 % of control | dose: 100.0 mg/kg/injection, schedule: Q01DX009 (ip), vehicle: saline with Tween-80 86 % of control

Cc1ccc(S(=O)(=O)OCC(COS(=O)(=O)c2ccc(C)cc2)C(C)(C)C)cc1
inactive: [1] 101 % of control | [2] 104 % of control | [3] 107 % of control

CC1=C(C(=O)OCc2ccccc2)C(c2cccnc2)C(C(=O)OCc2ccccc2)=C(C)N1
inactive: dose: 25.0 mg/kg/injection, schedule: Q01DX009 (ip), vehicle: distilled water + Tween-80 91 % of control | dose: 50.0 mg/kg/injection, schedule: Q01DX009 (ip), vehicle: distilled water + Tween-80 100 % of control | dose: 100.0 mg/kg/injection, schedule: Q01DX009 (ip), vehicle: distilled water + Tween-80 100 % of control | dose: 200.0 mg/kg/injection, schedule: Q01DX009 (ip), vehicle: distilled water + Tween-80 98 % of control | dose: 400.0 mg/kg/injection, schedule: Q01DX009 (ip), vehicle: distilled water + Tween-80 105 % of control

CC1(C)OCC(C2OC3OC(C)(C)OC3C2=C(Br)Br)O1 (stereo unspecified)
inactive: dose: 60.0 mg/kg/injection, schedule: Q01DX005 (ip), vehicle: saline with Tween-80 91 % of control | dose: 120.0 mg/kg/injection, schedule: Q01DX005 (ip), vehicle: saline with Tween-80 100 % of control | dose: 240.0 mg/kg/injection, schedule: Q01DX005 (ip), vehicle: saline with Tween-80 89 % of control

CCOC(=O)Cc1cn2cc(Cl)cc(Cl)c2n1
inactive: dose: 100.0 mg/kg/injection, schedule: Q04DX003 (ip), vehicle: saline with Tween-80 111 % of control | dose: 200.0 mg/kg/injection, schedule: Q04DX003 (ip), vehicle: saline with Tween-80 100 % of control | dose: 400.0 mg/kg/injection, schedule: Q04DX003 (ip), vehicle: saline with Tween-80 100 % of control

COc1ccc2cc3n(c(=O)c2c1O)CCc1cc2c(cc1-3)OCO2
inactive: dose: 0.63 mg/kg/injection, schedule: Q01DX009 (ip), vehicle: distilled water + Tween-80 101 % of control | dose: 1.25 mg/kg/injection, schedule: Q01DX009 (ip), vehicle: distilled water + Tween-80 101 % of control | dose: 2.5 mg/kg/injection, schedule: Q01DX009 (ip), vehicle: distilled water + Tween-80 93 % of control | dose: 5.0 mg/kg/injection, schedule: Q01DX009 (ip), vehicle: distilled water + Tween-80 108 % of control | dose: 10.0 mg/kg/injection, schedule: Q01DX009 (ip), vehicle: distilled water + Tween-80 101 % of control | dose: 20.0 mg/kg/injection, schedule: Q01DX009 (ip), vehicle: distilled water + Tween-80 92 % of control

CC(=O)O[C@H]1C(=O)C=C[C@H](C)[C@@H]2CC[C@H](OC(C)(C)C)[C@@]12C
inactive: [1] 102 % of control | [2] 98 % of control | [3] 108 % of control

COc1ccc(C2C3C(=O)OCCOC(=O)C3C2c2ccc(OC)c(OC)c2)cc1OC (stereo unspecified)
inactive: [1] 99 % of control | [2] 104 % of control | [3] 99 % of control

O=c1ccn(C2OC(COC(c3ccccc3)(c3ccccc3)c3ccccc3)C(O)C2OC(c2ccccc2)(c2ccccc2)c2ccccc2)c(=O)[nH]1 (stereo unspecified)
inactive: dose: 25.0 mg/kg/injection, schedule: Q01DX005 (ip), vehicle: Klucel (hydroxypropylcellulose) (HPC) 97 % of control | dose: 50.0 mg/kg/injection, schedule: Q01DX005 (ip), vehicle: Klucel (hydroxypropylcellulose) (HPC) 99 % of control | dose: 100.0 mg/kg/injection, schedule: Q01DX005 (ip), vehicle: Klucel (hydroxypropylcellulose) (HPC) 94 % of control | dose: 200.0 mg/kg/injection, schedule: Q01DX005 (ip), vehicle: Klucel (hydroxypropylcellulose) (HPC) 93 % of control

CCOC(=O)c1cnc2c(C)ccc(C)c2c1Nc1ccc2c(c1)OCO2
inactive: dose: 60.0 mg/kg/injection, schedule: Q01DX005 (ip), vehicle: Klucel + Tween-80 92 % of control | dose: 120.0 mg/kg/injection, schedule: Q01DX005 (ip), vehicle: Klucel + Tween-80 90 % of control | dose: 240.0 mg/kg/injection, schedule: Q01DX005 (ip), vehicle: Klucel + Tween-80 91 % of control

Clc1ccc(C#Cc2ccc(Cl)cc2)cc1
inactive: dose: 3.13 mg/kg/injection, schedule: Q01DX009 (ip), vehicle: saline with Tween-80 109 % of control | dose: 6.25 mg/kg/injection, schedule: Q01DX009 (ip), vehicle: saline with Tween-80 113 % of control

— PubChem BioAssay AID330 (DTP/NCI, 2004)
